Measurements from patent US4570005A, “Process for the preparation of 2-arylpropyl ether or thioether derivatives” (priority 1980, dated 1986).
Read-outs that look alike come from different tables or passages of the source.

What was measured:
tobacco cutworm [1] = assay: Test 1: Effect on Tobacco Cutworm (leaf immersion), mortality after 24 hours; format: in vivo; settings: second-instar larvae, 25° C
How it was run: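 Second-instar tobacco cutworm larvae were kept at 25 °C on air-dried sweet-potato leaves that had been immersed for 10 s in test dilutions of 100 or 20 ppm from an emulsifiable concentrate. Mortality was scored at 24 h as the mean of three cups.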

[2] = tested on: resistant green rice leafhopper (collected at Nakagawara); assay: Test 3: Effect on Resistant Green Rice Leafhopper (collected at Nakagawara); format: in vivo, Nephotettix cincticeps Uhler (Green rice leafhopper); settings: Nephotettix cincticeps, 24 h, read-out: Mortality (%), Green Rice Leafhopper Collected at Nakagawara
How it was run: (§1)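 Ten adult females per pot, either resistant (Nakagawara) or sensitive (Chigasaki), were caged on air-dried rice seedlings (2–3 leaves) sprayed at 3 ml/pot with 100 or 20 ppm of an emulsifiable concentrate dilution. Dead and living insects were counted after 24 hours; mortality is the mean of three pots.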

[3] = tested on: sensitive green rice leafhopper (collected at Chigasaki); assay: whole plant or invertebrate; format: in vivo; settings: Nephotettix cincticeps, read-out: Mortality (%), Green Rice Leafhopper Collected at Chigasaki
How it was run: as §1

diamond back moth = assay: Test 4: Effect on Diamond Back Moth; format: in vivo; settings: Plutella
How it was run: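 Compound formulated as an emulsifiable concentrate, diluted in water to 100 or 20 ppm and sprayed at 3 ml per cup onto cabbage leaves holding 10 third-instar larvae. Mortality counted after 24 hours; mean of three cups.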

green peach aphid = assay: Test 5: Effect on Green Peach Aphid; format: in vivo; settings: Myzus persicae; 100 ppm; mortality class; 24 hours; read-out: Insecticidal Activity
Procedure: (§2) To a mixture of 20 parts of the compound of the present invention and 20 parts of Sorpol SM-200 (registered tradename for the product supplied by Toho Chemical Industrial Co., Ltd.) was added 60 parts of xylol, and the mixture was suffciently blended. The obtained emulsifiable concentrate was diluted at a predetermined concentration with distilled water, and the obtained dilution was used.
Seedlings (having 3 to 4 leaves) of an eggplant grown on a pot were inoculated with green peach aphids and the insects were allowed to grow. The number of the insects was counted. A chemical dilution having a concentration of 100 ppm, prepared in the same manner as described in Test 1, was applied with a spray gun at a rate of 10 ml per pot. Then, the pot was placed in a glass green house. After 24 hours, the number of living insects was counted and the mortality was calculated.
The test was made on three pots, and the average value was calculated. In Table 6, mark "A" indicates a mortality higher than 95%, mark "B" indicates a mortality of 80 to 95%, mark "C" indicates a mortality of 50 to 80%, and mark "D" indicates a mortality lower than 50%.

German cockroach = assay: Test 7: Effect on German Cockroach; format: in vivo; settings: Blattella germanica
Procedure: as §2
The bottom face of a high Petri dish having a diameter of 9 cm and a height of 9 cm was treated with 50 or 10 mg/m^2 of a test compound and the dish was air-dried. In order to prevent the adults from escaping from the dish, the inner wall of the dish was treated with butter. Then, 10 male adults of German cockroach were set free in each dish, and the dish was placed in a thermostat chamber maintained at 25° C. After 24 hours, the number of agonized and killed adults was counted. The test was made on two dishes and the average value was calculated.

[4] = Test 9: Toxicity Test (acute oral toxicity, mice); settings: mouse, in vivo, po
Procedure: A predetermined amount of a solution or suspension of a test compound in corn oil was orally administered to male mice having a body weight of 19 to 23 g (0.2 ml per 10 g of the body weight). After 7 days, the number of killed mice was counted and the influences on the mice were examined.

Test 8: Fish Toxicity = format: in vivo; settings: carp, water; concentration at which 1/2 of the test fishes were killed within 48 hours; read-out: Fish Toxicity, TLm48
Procedure: A water tank having a width of 60 cm, a length of 30 cm and a height of 40 cm was filled with water, and 10 yearling carps having a body length of about 5 cm were set free in the tank and adapted to the environment in the tank. A test compound was applied so that the concentration in water was 10, 1 or 0.1 ppm. After 48 hours, the numbers of killed and living carps were counted and the influences on the fishes were examined.

tobacco cutworm [5] = assay: Test 2: Tobacco Cutworm Larva Dipping Test, mortality after 24 hours; format: in vivo; settings: 24 h
How it was run: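 Second- and fifth-instar larvae dipped 5 s in a water dilution of an emulsifiable concentrate at 100 or 20 ppm, blotted, then held on artificial diet at 25° C. Dead and living larvae counted after 24 hours; mortality averaged over three cups.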

[6] = 20 ppm, sensitive female adults, 24 hours
[7] = 100 ppm, sensitive female adults, 24 hours
[8] = 20 ppm, third-instar larvae, 24 hours, read-out: Mortality (%)
[9] = 100 ppm, third-instar larvae, 24 hours, read-out: Mortality (%)
[10] = 10 mg/m^2, male adults, agonized and killed after 24 hours, read-out: Mortality (%)
[11] = 50 mg/m^2, male adults, agonized and killed after 24 hours, read-out: Mortality (%)
[12] = read-out: Motality (%), Fifth-Instar Larvae
[13] = read-out: Motality (%), Second-Instar Larvae

Row | SMILES | mortality at 20 ppm (tobacco cutworm [1]) [%] | mortality at 100 ppm (tobacco cutworm [1]) [%] | mortality at 20 ppm [2] [%] | mortality at 100 ppm [2] [%] | mortality at 20 ppm [3, 6] [%] | mortality at 100 ppm [3, 7] [%] | mortality at 20 ppm (diamond back moth; [8]) [%] | mortality at 100 ppm (diamond back moth; [9]) [%] | mortality at 100 ppm (green peach aphid) [%] | mortality at 10 mg/m2 (German cockroach; [10]) [%] | mortality at 50 mg/m2 (German cockroach; [11]) [%] | LD50 at 168 h [4] [mg/kg] | LC50 at 48 h (Test 8: Fish Toxicity) [µg/mL] | also measured
1 | CC(C)(CSCc1cccc(Oc2ccc(F)cc2)c1)c1ccc(Cl)cc1 [Compound 9] | 90 | 100 | 90 | 100 | 70 | 100 | 95 | 100 | > 95 | 100 | 100 | > 500 |  | 
2 | CCOc1ccc(C(C)(C)COCc2cccc(Oc3ccccc3)c2)cc1OCC [Compound 93, 3-Phenoxybenzyl 2-(3,4-diethoxyphenyl)-2-methylpropyl ether] | 100 | 100 | 100 | 100 | 75 | 100 |  |  | > 95 | 100 | 100 | > 500 |  | 
3 | CC(C)(COCc1cccc(Oc2ccccc2)c1)c1cccc(C(F)(F)F)c1 [Compound 39, 3-Phenoxybenzyl 2-(3-trifluoromethylphenyl)-2-methylpropyl ether] | 90 | 100 | 100 | 100 | 100 | 100 |  |  | > 95 | 90 | 100 | > 500 |  | 
4 | CC(C)(COCc1cccc(Sc2ccccc2)c1)c1ccc(Cl)cc1 [Compound 15, 3-Phenylthiobenzyl 2-(4-chlorophenyl)-2-methylpropyl ether] |  |  | 90 | 100 | 70 | 100 |  |  | 80 to 95 |  |  | > 500 | > 10 | 
5 | CCC(C)(COCc1cccc(Oc2ccccc2)c1)c1ccc(Cl)c(Cl)c1 (stereo not drawn) [Compound 52, 3-Phenoxybenzyl 2-(3,4-dichlorophenyl)-2-ethylpropyl ether] |  |  | 90 | 100 | 90 | 100 | 90 | 100 | > 95 | 90 | 100 | > 500 | > 10 | 
6 | Cc1ccc(C(C)(C)COCc2cccc(Oc3ccccc3)c2)cc1Cl [Compound 73] | 100 | 100 |  |  |  |  | 90 | 100 | > 95 | 100 | 100 | > 500 | > 10 | 
7 | COc1ccc(Oc2cccc(COCC(C)(C)c3ccc(SC)cc3)c2)cc1 [Compound 8, 3-(4-Methoxyphenoxy)benzyl 2-(4-methylthiophenyl)-2-methylpropyl ether] |  |  |  |  |  |  |  |  | 80 to 95 |  |  | > 500 | > 10 | 
8 | CCOc1ccc(C(C)(C)COCc2cccc(Oc3ccccc3)c2)cc1 [Compound 55, 3-Phenoxybenzyl 2-(4-ethoxyphenyl)-2-methylpropyl ether] | 100 | 100 | 100 | 100 |  |  |  |  | > 95 |  |  | > 500 | > 0.1 | mortality at 20 ppm (tobacco cutworm [5]; [12]): 100%; mortality at 100 ppm (tobacco cutworm [5]; [12]): 100%; mortality at 20 ppm (tobacco cutworm [5]; [13]): 100%; mortality at 100 ppm (tobacco cutworm [5]; [13]): 100%; mortality at 20 ppm ([3]; 24 h): 100%; mortality at 100 ppm ([3]; 24 h): 100%; mortality at 20 ppm (diamond back moth; 24 h): 100%; mortality at 100 ppm (diamond back moth; 24 h): 100%; mortality at 10 mg/m2 (German cockroach; 24 h): 100%; mortality at 50 mg/m2 (German cockroach; 24 h): 100%
9 | CSc1ccc(C(C)(C)COCc2cccc(Oc3ccccc3)c2)cc1 [Compound 24, 3-Phenoxybenzyl 2-(4-methylthiophenyl)-2-methylpropyl ether] |  |  | 70 | 100 | 40 | 100 |  |  | > 95 |  |  | > 500 | > 10 | 
10 | CC(C)(COCc1cccc(Oc2ccccc2F)c1)c1ccc(Cl)cc1 [Compound 14] | 100 | 100 | 100 | 100 | 100 | 100 | 100 | 100 | > 95 | 100 | 100 | > 500 |  | 
11 | CCC(C)(COCc1cccc(Oc2cccc(Cl)c2)c1)c1cccc(C)c1 (stereo not drawn) [Compound 29] |  |  |  |  |  |  |  |  | 80 to 95 |  |  | > 500 | > 10 | 
12 | CCCCCOc1ccc(C(C)(C)COCc2cccc(Oc3ccccc3)c2)cc1 [Compound 62, 3-Phenoxybenzyl 2-[4-(n-pentyloxy)phenyl]-2-methylpropyl ether] | 80 | 100 |  |  |  |  | 50 | 100 | 80 to 95 |  |  | > 500 | > 1 | 
13 | CC(C)(COCc1coc(Cc2ccccc2)c1)c1ccc(Cl)cc1 [Compound 12, 5-Benzyl-3-furylmethyl 2-(4-chlorophenyl)-2-methylpropyl ether] |  |  |  |  |  |  |  |  | 80 to 95 |  |  | > 500 | > 10 | 
14 | COP(=O)(OC)OC=C(Cl)Cl [(g), O,O-dimethyl-O-(2,2-dichlorovinyl)phosphate, reference compound] |  |  |  |  |  |  |  |  | < 50 |  |  |  |  | mortality at 20 ppm (tobacco cutworm [5]; [12]): 10%; mortality at 100 ppm (tobacco cutworm [5]; [12]): 30%; mortality at 20 ppm (tobacco cutworm [5]; [13]): 20%; mortality at 100 ppm (tobacco cutworm [5]; [13]): 50%; mortality at 20 ppm (diamond back moth; 24 h): 0%; mortality at 100 ppm (diamond back moth; 24 h): 60%; mortality at 10 mg/m2 (German cockroach; 24 h): 40%; mortality at 50 mg/m2 (German cockroach; 24 h): 100%
15 | CCC(C)(COCc1cccc(Oc2ccccc2)c1)c1ccc(C)cc1 (stereo not drawn) [Compound 53, 3-Phenoxybenzyl 2-(4-methylphenyl)-2-ethylpropyl ether] |  |  | 100 | 100 | 80 | 100 | 100 | 100 | 80 to 95 |  |  | > 500 | > 10 | 
